# Data reported in patent publication US20170354639A1, “DITERPENOID DERIVATIVES AND METHODS OF USE THEREOF” (Biogen MA Inc., priority 2014, published 2017).
# Target: Nrf2-Keap1 (Homo sapiens, UniProt Q14145)
# Assay: DiscoveRx PathHunter Nrf2-Keap1 nuclear translocation functional assay (agonist format)
# Type: cell-based
# Conditions: in duplicate, agonist mode; for EC50: 10 concentrations, 3-fold serial dilutions, 30 μM top concentration, normalized to CDDO methyl ester and vehicle; for activation at 10 µM / % Activation @ 10 μM: single concentration of 10 μM, normalized to control ligand (CDDO methyl ester) and vehicle
# Protocol: DiscoveRx PathHunter® Nrf2-Keap1 Functional Assay
# DiscoveRx's Nrf2-Keapl translocation assay was used to profile compounds. Primary Screening was performed in duplicate at a single concentration of 10 μM and EC50 determinations were performed in duplicate at 10 concentrations with 3-fold serial dilutions at a 30 μM top concentration or an otherwise specified top concentration.
# The PathHunter® Nuclear Translocation assay detects translocation of a target protein to, or from, the nucleus. In this system, Prolink™ (PK), a small enzyme fragment, is fused to the protein of interest and Enzyme Acceptor (EA) is localized in the nucleus. Activation of the signaling pathway induces the target protein to either transit into the nucleus, thus forcing complementation of the PK and EA fragments, or out of the nucleus, hindering complementation of the fragments.
# Cell handling: PathHunter Pathway cell lines were expanded from freezer stocks according to standard procedures. 5000 cells were seeded in Cell Plating Reagent 0 (containing 1% FBS) to a total volume of 20 μL into white walled, 384-well microplates and incubated for the overnight prior to testing.
# Agonist format: For Agonist determination, cells were incubated with sample to induce response. Dilution of sample stocks was performed to generate 100× sample in DMSO. Intermediate dilution of sample stocks was performed to generate 5× sample in assay buffer (Cell Plating Reagent 0 containing 1% FBS). 5 μL of 5× sample was added to cells and incubated at room temperature for 6 hours. Vehicle concentration was 1%.
# Signal detection: Assay signal was generated through a single addition of 25 μL (100% v/v) of PathHunter Flash Detection reagent, followed by a one hour incubation at room temperature. Microplates were read following signal generation with a PerkinElmer Envision™ instrument for chemiluminescent signal detection.
# Data analysis: Compound activity was analyzed using CBIS data analysis suite (ChemInnovation, CA). For agonist mode assays, percentage activity was calculated using the following formula: % Activity=100%×(mean RLU of test sample−mean RLU of vehicle control)/(mean MAX RLU control ligand−mean RLU of vehicle control). For EC50 determination, a control agonist dose response curve was generated in the Keap 1-Nrf2 biosensor assay, data was normalized to the maximal and minimal response observed in the presence of the control ligand and vehicle respectively. CDDO methyl ester was used as a control compound. Compounds were tested in the agonist mode of the assay and data was normalized to the maximal and minimal response observed in the presence of control ligand and vehicle.
# Chain of Nrf2-Keap1 (Q14145 whole entry): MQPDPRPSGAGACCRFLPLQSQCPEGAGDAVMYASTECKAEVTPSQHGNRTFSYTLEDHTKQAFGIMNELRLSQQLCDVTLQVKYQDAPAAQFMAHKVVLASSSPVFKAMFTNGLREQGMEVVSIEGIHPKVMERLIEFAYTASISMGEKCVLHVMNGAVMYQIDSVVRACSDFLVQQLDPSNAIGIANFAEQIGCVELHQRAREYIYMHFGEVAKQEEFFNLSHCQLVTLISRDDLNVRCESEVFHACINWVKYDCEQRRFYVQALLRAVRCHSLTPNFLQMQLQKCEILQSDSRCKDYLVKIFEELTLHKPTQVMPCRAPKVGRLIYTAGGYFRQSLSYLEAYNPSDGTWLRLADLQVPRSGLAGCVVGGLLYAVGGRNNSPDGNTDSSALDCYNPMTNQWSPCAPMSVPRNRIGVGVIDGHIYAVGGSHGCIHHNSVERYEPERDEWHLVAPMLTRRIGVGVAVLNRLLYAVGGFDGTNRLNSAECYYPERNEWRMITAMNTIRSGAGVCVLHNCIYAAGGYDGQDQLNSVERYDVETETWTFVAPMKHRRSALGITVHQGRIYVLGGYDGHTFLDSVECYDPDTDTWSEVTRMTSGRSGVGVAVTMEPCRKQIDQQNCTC
SMILES,EC50,activation at 10 µM (6 h),activation at 10 µM (6 hours),% Activation @ 10 μM (6 hours)
"C=C1CC[C@@H]2[C@]3(C)COS(=O)O[C@@H]3CC[C@@]2(C)[C@@H]1C/C=C1/C(=O)OC[C@H]1NC=O (single isomer, unassigned) [Example 20]",500 to 2000 nM,> 100%,,
"C=C1CC[C@@H]2[C@]3(C)COS(=O)O[C@@H]3CC[C@@]2(C)[C@@H]1C/C=C1/C(=O)OC[C@H]1NC(=O)OC (single isomer, unassigned) [Example 30]",,,51 to 100%,
"C=C1CC[C@@H]2[C@]3(C)COS(=O)O[C@@H]3CC[C@@]2(C)[C@@H]1C/C=C1/C(=O)OC[C@@H]1NC(=O)OC (single isomer, unassigned) [Example 31]",500 to 2000 nM,,> 100%,
"C=C1CC[C@@H]2[C@]3(C)COCO[C@@H]3CC[C@@]2(C)[C@@H]1C/C=C1/C(=O)OCC1NC=O (single isomer, unassigned) [Example 39A]",500 to 2000 nM,,,A (A: >100%)
"C=C1CC[C@@H]2[C@]3(C)COCO[C@@H]3CC[C@@]2(C)[C@@H]1C/C=C1/C(=O)OCC1NC=O (single isomer, unassigned) [Example 39B]",,,,B (B: 51 to 100%)
"C=C1CC[C@@H]2[C@]3(C)COS(=O)O[C@@H]3CC[C@@]2(C)[C@@H]1C/C=C1/C(=O)OCC1NC(=O)COC (single isomer, unassigned) [Example 40B]",500 to 2000 nM,,> 100%,
"C=C1CC[C@@H]2[C@]3(C)COS(=O)O[C@@H]3CC[C@@]2(C)[C@@H]1C/C=C1/C(=O)OCC1NC(=O)CO (single isomer, unassigned) [Example 41A]",> 2000 nM,,,
"C=C1CC[C@@H]2[C@]3(C)COS(=O)O[C@@H]3CC[C@@]2(C)[C@@H]1C/C=C1/C(=O)OCC1NC(=O)CO (single isomer, unassigned) [Example 41B]",500 to 2000 nM,,,
"C=C1CC[C@@H]2[C@@H](C)[C@@](O)(C(F)(F)F)CC[C@@]2(C)[C@@H]1C/C=C1/C(=O)OCC1NC=O (single isomer, unassigned) [Example 43A]",500 to 2000 nM,,,
"C=C1CC[C@@H]2[C@@H](C)[C@@](O)(C(F)(F)F)CC[C@@]2(C)[C@@H]1C/C=C1/C(=O)OCC1NC=O (single isomer, unassigned) [Example 43B]",< 500 nM,,,
"C=C1CC[C@@H]2[C@@H](C)[C@](O)(C(F)(F)F)CC[C@@]2(C)[C@@H]1C/C=C1/C(=O)OCC1NC=O (single isomer, unassigned) [Example 44A]",> 2000 nM,,,
"C=C1CC[C@@H]2[C@@H](C)[C@](O)(C(F)(F)F)CC[C@@]2(C)[C@@H]1C/C=C1/C(=O)OCC1NC=O (single isomer, unassigned) [Example 44B]",500 to 2000 nM,,,
"C=C1CC[C@@H]2[C@]3(C)COCO[C@@H]3CC[C@@]2(C)[C@@H]1C/C=C1/C(=O)OCC1NC(C)=O (single isomer, unassigned) [Example 45A]",> 2000 nM,,,
"C=C1CC[C@@H]2[C@]3(C)COCO[C@@H]3CC[C@@]2(C)[C@@H]1C/C=C1/C(=O)OCC1NC(C)=O (single isomer, unassigned) [Example 45B]",> 2000 nM,,,
"C=C1CC[C@@H]2[C@]3(C)COCO[C@@H]3CC[C@@]2(C)[C@@H]1C/C=C1/C(=O)OCC1NC(=O)COC (single isomer, unassigned) [Example 46A]",> 2000 nM,,,
"C=C1CC[C@@H]2[C@]3(C)COCO[C@@H]3CC[C@@]2(C)[C@@H]1C/C=C1/C(=O)OCC1NC(=O)COC (single isomer, unassigned) [Example 46B]",> 2000 nM,,,
"C=C1CC[C@@H]2[C@@H](C)[C@@H](O)CC[C@@]2(C)[C@@H]1C/C=C1/C(=O)OC[C@H]1O [Example 1, (S,E)-4-hydroxy-3-(2-((1R,4aR,5R,6S,8aR)-6-hydroxy-5,8a-dimethyl-2-methylenedecahydronaphthalen-1-yl)ethylidene)dihydrofuran-2(3H)-one]",500 to 2000 nM,51 to 100%,,
"C=C1CC[C@@H]2[C@@H](C)[C@H](O)CC[C@@]2(C)[C@@H]1C/C=C1/C(=O)OC[C@H]1O [Example 2, (S,E)-4-hydroxy-3-(2-((1R,4aR,5R,6R,8aR)-6-hydroxy-5,8a-dimethyl-2-methylenedecahydronaphthalen-1-yl)ethylidene)dihydrofuran-2(3H)-one]",< 500 nM,> 100%,,
"CC1=CC[C@@H]2[C@@H](C)[C@H](O)CC[C@@]2(C)[C@@H]1C/C=C1/C(=O)OC[C@H]1O [Example 3, (S,E)-4-hydroxy-3-(2-((1R,4aR,5R,6R,8aR)-6-hydroxy-2,5,8a-trimethyl-1,4,4a,5,6,7,8,8a-octahydronaphthalen-1-yl)ethylidene)dihydrofuran-2(3H)-one]",< 500 nM,> 100%,,
"C=C1CC[C@@H]2[C@@H](C)[C@](C)(O)CC[C@@]2(C)[C@@H]1C/C=C1/C(=O)OC[C@H]1O [Example 4, (S,E)-4-hydroxy-3-(2-((1R,4aR,5R,6R,8aR)-6-hydroxy-5,6,8a-trimethyl-2-methylenedecahydronaphthalen-1-yl)ethylidene)dihydrofuran-2(3H)-one]",< 500 nM,> 100%,,
"C=C1CC[C@@H]2[C@@H](C)[C@@](C)(O)CC[C@@]2(C)[C@@H]1C/C=C1/C(=O)OC[C@H]1O [Example 5, (S,E)-4-hydroxy-3-(2-((1R,4aR,5R,6S,8aR)-6-hydroxy-5,6,8a-trimethyl-2-methylenedecahydronaphthalen-1-yl)ethylidene)dihydrofuran-2(3H)-one]",< 500 nM,> 100%,,
"C=C1CC[C@H]2[C@@](C)(CC[C@](C)(O)[C@@]2(C)CO)[C@@H]1C/C=C1/C(=O)OC[C@H]1O [Example 6, (S,E)-4-hydroxy-3-(2-((1R,4aS,5R,6S,8a5)-6-hydroxy-5-(hydroxymethyl)-5,6,8a-trimethyl-2-methylenedecahydronaphthalen-1-yl)ethylidene)dihydrofuran-2(3H)-one]",,51 to 100%,,
"C=C1CC[C@H]2[C@@](C)(CC[C@@](C)(O)[C@@]2(C)CO)[C@@H]1C/C=C1/C(=O)OC[C@H]1O [Example 7, (S,E)-4-hydroxy-3-(2-((1R,4aS,5R,6R,8a5)-6-hydroxy-5-(hydroxymethyl)-5,6,8a-trimethyl-2-methylenedecahydronaphthalen-1-yl)ethylidene)dihydrofuran-2(3H)-one]",,51 to 100%,,
"C=C1CC[C@@H]2[C@]3(C)CO[S@](=O)O[C@@H]3CC[C@@]2(C)[C@@H]1C/C=C1/C(=O)OC[C@H]1O [Example 8, (S,E)-3-(2-((3S, 4aR, 6aS, 7R, 10aS, 10bR)-6a,10b-dimethyl-8-methylene-3-oxidodecahydro-1H-naphtho[2,1-d][1,3,2]dioxathiin-7-yl)ethylidene)-4-hydroxydihydrofuran-2(3H)-one]",500 to 2000 nM,> 100%,,
"C=C1CC[C@@H]2[C@]3(C)CO[S@@](=O)O[C@@H]3CC[C@@]2(C)[C@@H]1C/C=C1/C(=O)OC[C@H]1O [Example 9, (S,E)-3-(2-((3R,4aR,6aS,7R,10aS,10bR)-6a,10b-dimethyl-8-methylene-3-oxidodecahydro-1H-naphtho[2,1-d][1,3,2]dioxathiin-7-yl)ethylidene)-4-hydroxydihydrofuran-2(3H)-one]",500 to 2000 nM,,,
"C=C1CC[C@@H]2[C@]3(C)CO[S@](=O)O[C@@H]3CC[C@@]2(C)[C@@H]1C/C=C1/C(=O)OC[C@@H]1O [Example 10, (R,E)-3-(2-((3S,4aR,6aS,7 R,10aS,10bR)-6a,10b-dimethyl-8-methylene-3-oxidodecahydro-1H-naphtho[2,1-d][1,3,2]dioxathiin-7-yl)ethylidene)-4-hydroxydihydrofuran-2(3H)-one]",,51 to 100%,,
"C=C1CC[C@H]2[C@@](C)(CCC3=NOC[C@]32C)[C@@H]1C/C=C1/C(=O)OC[C@H]1O [Example 11, (S,E)-3-(2-((5aS,6R,9aS,9bS)-5a,9b-dimethyl-7-methylene-1,4,5,5a,6,7,8,9,9a,9b-decahydronaphtho[2,1-c]isoxazol-6-yl)ethylidene)-4-hydroxydihydrofuran-2(3H)-one]",500 to 2000 nM,> 100%,,
"C=C1CC[C@@H]2[C@]3(C)C=NO[C@@H]3CC[C@@]2(C)[C@@H]1C/C=C1/C(=O)OC[C@H]1O [Example 12, (S,E)-3-(2-((3aR,5aS,6R,9aS,9bR)-5a,9b-dimethyl-7-methylene-3a,4,5,5a,6,7,8,9,9a,9b-decahydronaphtho[1,2-d]isoxazol-6-yl)ethylidene)-4-hydroxydihydrofuran-2(3H)-one]",500 to 2000 nM,,51 to 100%,
